This note sets out measurements from patent US10562898B2, “Substituted benzenesulfonamides as inhibitors of alpha-4 beta-7 integrin activity” (EA PHARMA CO., LTD., priority 2016, dated 2020).

Each structure is given as a SMILES string.

For the assay, the target named is T1, α4β7 integrin (Homo sapiens, UniProt P13612+P26010).
T1 construct: a cell line RPMI-8866, which is known to express α4β7 integrin; endogenous in cells; host or cells: RPMI-8866 (human B cell line)
T1 sequence (P13612 34-1032): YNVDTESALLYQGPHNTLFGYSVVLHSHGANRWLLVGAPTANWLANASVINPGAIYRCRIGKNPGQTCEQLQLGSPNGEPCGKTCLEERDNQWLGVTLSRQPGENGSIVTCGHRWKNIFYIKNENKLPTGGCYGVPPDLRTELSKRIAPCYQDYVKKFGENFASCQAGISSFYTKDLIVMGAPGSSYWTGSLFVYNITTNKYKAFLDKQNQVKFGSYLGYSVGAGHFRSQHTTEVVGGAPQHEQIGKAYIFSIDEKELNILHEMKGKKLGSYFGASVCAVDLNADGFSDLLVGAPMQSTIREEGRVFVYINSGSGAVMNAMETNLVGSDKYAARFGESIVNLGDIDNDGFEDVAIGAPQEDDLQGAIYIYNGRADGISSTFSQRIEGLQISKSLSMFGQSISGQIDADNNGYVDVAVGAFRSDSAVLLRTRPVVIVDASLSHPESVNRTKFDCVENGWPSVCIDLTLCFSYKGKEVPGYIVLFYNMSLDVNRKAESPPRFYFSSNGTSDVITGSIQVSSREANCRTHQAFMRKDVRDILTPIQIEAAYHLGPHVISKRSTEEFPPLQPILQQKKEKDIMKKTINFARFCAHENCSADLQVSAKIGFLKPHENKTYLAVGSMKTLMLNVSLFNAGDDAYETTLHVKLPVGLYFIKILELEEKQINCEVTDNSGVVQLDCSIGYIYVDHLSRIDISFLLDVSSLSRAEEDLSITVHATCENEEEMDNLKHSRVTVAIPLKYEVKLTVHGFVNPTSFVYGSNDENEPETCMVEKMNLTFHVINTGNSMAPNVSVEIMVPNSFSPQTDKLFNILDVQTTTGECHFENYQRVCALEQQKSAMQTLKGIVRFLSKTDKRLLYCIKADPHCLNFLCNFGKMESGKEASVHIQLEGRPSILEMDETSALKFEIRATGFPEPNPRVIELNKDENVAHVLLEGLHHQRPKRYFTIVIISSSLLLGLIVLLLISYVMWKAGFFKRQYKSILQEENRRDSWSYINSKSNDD
T1 sequence (P26010 20-798): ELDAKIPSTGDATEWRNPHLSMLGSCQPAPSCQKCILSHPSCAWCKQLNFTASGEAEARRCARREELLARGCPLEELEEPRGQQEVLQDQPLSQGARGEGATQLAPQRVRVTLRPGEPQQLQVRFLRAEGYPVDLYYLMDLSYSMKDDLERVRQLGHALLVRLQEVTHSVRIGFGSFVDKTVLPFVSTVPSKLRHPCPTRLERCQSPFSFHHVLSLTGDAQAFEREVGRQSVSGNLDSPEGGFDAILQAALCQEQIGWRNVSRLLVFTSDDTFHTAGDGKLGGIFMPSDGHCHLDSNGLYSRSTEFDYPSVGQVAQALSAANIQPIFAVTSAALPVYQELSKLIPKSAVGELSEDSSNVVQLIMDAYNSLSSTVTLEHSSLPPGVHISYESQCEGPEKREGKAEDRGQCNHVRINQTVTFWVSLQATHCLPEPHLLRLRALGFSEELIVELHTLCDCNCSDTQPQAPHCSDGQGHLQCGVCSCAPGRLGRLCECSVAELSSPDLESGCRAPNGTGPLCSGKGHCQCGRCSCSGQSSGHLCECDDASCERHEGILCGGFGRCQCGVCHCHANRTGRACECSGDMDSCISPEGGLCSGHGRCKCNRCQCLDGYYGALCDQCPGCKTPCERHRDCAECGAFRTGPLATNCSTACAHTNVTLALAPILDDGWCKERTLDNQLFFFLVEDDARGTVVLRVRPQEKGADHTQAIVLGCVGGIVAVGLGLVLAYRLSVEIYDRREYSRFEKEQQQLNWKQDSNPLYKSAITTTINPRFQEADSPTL
Put plainly: MAdCAM-1/α4β7 integrin binding inhibitory activity evaluation test (RPMI-8866 cells binding to MAdCAM-1/Fc). The following applies: recombinant mouse MAdCAM-1/Fc, no serum. Type of assay: cell-based. As for the experimental part: (2) MAdCAM-1/α4β7 Integrin Binding Inhibitory Activity Evaluation Test
Each test substance was measured in terms of an ability to inhibit the MAdCAM-1 binding of a human B cell line, namely, a cell line RPMI-8866, which is known to express α4β7 integrin.
A solution of recombinant mouse MAdCAM-1/Fc (R&D Systems, Inc.) (0.75 μg/mL) diluted with a buffer A (carbonate buffer, pH 9.6) was added in an amount of 50 μL/well to a 96-well microtiter plate, followed by incubation at 4° C. overnight. After the plate was washed with PBS once, 150 μL/well of Block Ace (Snow Brand Milk Products Co., Ltd.) was added, followed by incubation at room temperature for 2 hours. After removal, the plate was washed with PBS once.
Then, 100 μL of the RPMI-8866 cells (2×10^6 cells/mL) and 100 μL of the test substance at each of various concentrations diluted with a binding buffer (DMEM containing 40 mM HEPES, 0.2% BSA, and 4 mM MnCl2) were added on the plate coated with the MAdCAM-1/Fc (5×10^5 cells/well), followed by incubation at 30° C. for 15 to 60 minutes. After the cells were bound to the wells, the plate was washed with PBS to remove unbound cells. A buffer C (PBS containing 1.5% Triton X-100) in an amount 50 μL/well was added to the plate to lyse the bound RPMI-8866 cells. After 30 μL of a substrate buffer (Promega, CytoTox 96 Non-Radioactive Cytotoxicity Assay) was added to 30 μL of the cell lysate, a reaction was allowed to proceed at room temperature in the dark for 30 minutes. After 30 μL of a stop solution (Promega, CytoTox 96 Non-Radioactive Cytotoxicity Assay) was added to each, and then an absorbance at 490 nm was measured using a plate reader. The absorbance obtained here represents a detection result of an activity of lactate dehydrogenase (LDH) eluted in the supernatant of each well, that is, the absorbance is proportional to the number of RPMI-8866 cells bound to the MAdCAM-1 and thus remaining on the plate. The test was performed in duplicate. Provided that the absorbance of the well containing no test substance was 100%, a cell binding rate with the test substance at each of the various concentrations was figured out, and a concentration IC50 which brought about 50% binding inhibition was calculated.

For orientation: IC50 means the concentration at which inhibition is half-maximal. On to `Cn1c(=O)n(-c2ccc(C[C@H](NC(=O)c3cc(F)c(NS(=O)(=O)c4ccc(NC(=O)C(C)(C)C)cc4)cc3F)C(=O)O)cc2)c(=O)c2ccncc21` [Compound A1, (2S)-2-[[4-[[4-(2,2-dimethylpropanoylamino)phenyl]sulfonylamino]-2,5-difluoro-benzoyl]amino]-3-[4-(1-methyl-2,4-dioxo-pyrido[3,4-d]pyrimidin-3-yl)phenyl]propanoic acid], for which the IC50 was found to be 260 pM.
Consider `CC(=O)Nc1ccc(S(=O)(=O)Nc2cc(F)c(C(=O)N[C@@H](Cc3ccc(-n4c(=O)c5ccncc5n(C)c4=O)cc3)C(=O)O)cc2F)cc1` [Compound A2], for which the 50% inhibitory concentration (IC50) was 1200 pM.
The same measure for `CCC(CC)C(=O)Nc1ccc(S(=O)(=O)Nc2cc(F)c(C(=O)N[C@@H](Cc3ccc(-n4c(=O)c5ccncc5n(C)c4=O)cc3)C(=O)O)cc2F)cc1` [Compound A3]: 720 pM.
Regarding `CCC(CC)C(=O)Nc1ccc(S(=O)(=O)Nc2cc(F)c(C(=O)N[C@@H](Cc3ccc(-n4c(=O)c(C)c(C)n(C)c4=O)cc3)C(=O)O)cc2F)cc1` [Compound A4], the IC50 came out at 850 pM.
The same measure for `Cn1c(=O)n(-c2ccc(C[C@H](NC(=O)c3cc(F)c(NS(=O)(=O)c4ccc(NC(=O)NC(C)(C)C)cc4)cc3F)C(=O)O)cc2)c(=O)c2ccncc21` [Compound A5]: 2300 pM; for `Cn1c(=O)n(-c2ccc(C[C@H](NC(=O)c3cc(F)c(NS(=O)(=O)c4ccc(NC(=O)C5CCNCC5)cc4)cc3F)C(=O)O)cc2)c(=O)c2ccncc21` [Compound A6, (2S)-2-[[2,5-difluoro-4-[[4-(piperidine-4-carbonylamino)phenyl]sulfonylamino]benzoyl]amino]-3-[4-(1-methyl-2,4-dioxo-pyrido[3,4-d]pyrimidin-3-yl)phenyl]propanoic acid]: 2400 pM; for `Cn1c(=O)n(-c2ccc(C[C@H](NC(=O)c3cc(F)c(NS(=O)(=O)c4ccc(NC(=O)c5ccncc5)cc4)cc3F)C(=O)O)cc2)c(=O)c2ccncc21` [Compound A7]: 360 pM.
Regarding `Cc1c(C)n(C)c(=O)n(-c2ccc(C[C@H](NC(=O)c3cc(F)c(NS(=O)(=O)c4ccc(NC(=O)C(C)(C)C)cc4)cc3F)C(=O)O)cc2)c1=O` [Compound A8], the IC50 was found to be 330 pM.
The same measure for `Cn1c(=O)n(-c2ccc(C[C@H](NC(=O)c3cc(F)c(NS(=O)(=O)c4ccc(NC(=O)C(C)(C)C)s4)cc3F)C(=O)O)cc2)c(=O)c2ccncc21` [Compound A9]: 410 pM.
On to `Cc1c(C)n(C)c(=O)n(-c2ccc(C[C@H](NC(=O)c3cc(F)c(NS(=O)(=O)c4ccc(NC(=O)C(C)(C)C)s4)cc3F)C(=O)O)cc2)c1=O` [Compound A10], for which the IC50 came out at 380 pM.
The same measure for `Cc1c(C)n(C)c(=O)n(-c2ccc(C[C@H](NC(=O)c3cc(F)c(NS(=O)(=O)c4cc(NC(=O)C(C)(C)C)cs4)cc3F)C(=O)O)cc2)c1=O` [Compound A11]: 2000 pM.
The same measure for `Cn1c(=O)n(-c2ccc(C[C@H](NC(=O)c3cc(F)c(NS(=O)(=O)c4ccc(NC(=O)C(C)(C)C)c(F)c4)cc3F)C(=O)O)cc2)c(=O)c2ccncc21` [Compound A12]: 450 pM; for `Cn1c(=O)n(-c2ccc(C[C@H](NC(=O)c3cc(F)c(NS(=O)(=O)c4ccc(NC(=O)C5CCOCC5)cc4)cc3F)C(=O)O)cc2)c(=O)c2ccncc21` [Compound A14]: 380 pM.
With `Cc1c(C)n(C)c(=O)n(-c2ccc(C[C@H](NC(=O)c3cc(F)c(NS(=O)(=O)c4ccc(NC(=O)C5CCOCC5)cc4)cc3F)C(=O)O)cc2)c1=O` [Compound A15], the IC50 stood at 930 pM.
The same measure for `COC1(C(=O)Nc2ccc(S(=O)(=O)Nc3cc(F)c(C(=O)N[C@@H](Cc4ccc(-n5c(=O)c6ccncc6n(C)c5=O)cc4)C(=O)O)cc3F)cc2)CC1` [Compound A16]: 520 pM; for `COC1(C(=O)Nc2ccc(S(=O)(=O)Nc3cc(F)c(C(=O)N[C@@H](Cc4ccc(-n5c(=O)c(C)c(C)n(C)c5=O)cc4)C(=O)O)cc3F)cc2)CC1` [Compound A17]: 550 pM.
`Cn1c(=O)n(-c2ccc(C[C@H](NC(=O)c3cc(F)c(NS(=O)(=O)c4ccc(NC(=O)C(C)(C)CO)cc4)cc3F)C(=O)O)cc2)c(=O)c2ccncc21` [Compound A18]: the IC50 was found to be 360 pM.
On to `Cc1c(C)n(C)c(=O)n(-c2ccc(C[C@H](NC(=O)c3cc(F)c(NS(=O)(=O)c4ccc(NC(=O)C(C)(C)C)cn4)cc3F)C(=O)O)cc2)c1=O` [Compound A19], for which the IC50 was found to be 390 pM.
The same measure for `Cc1c(C)n(C)c(=O)n(-c2ccc(C[C@H](NC(=O)c3cc(F)c(NS(=O)(=O)c4ccc(NC(=O)C5(C(F)(F)F)CC5)cc4)cc3F)C(=O)O)cc2)c1=O` [Compound A20]: 250 pM; for `Cc1c(C)n(C)c(=O)n(-c2ccc(C[C@H](NC(=O)c3cc(F)c(NS(=O)(=O)c4ccc(NC(=O)C(C)(C)CO)cc4)cc3F)C(=O)O)cc2)c1=O` [Compound A21]: 340 pM; for `Cc1c(C)n(C)c(=O)n(-c2ccc(C[C@H](NC(=O)c3cc(F)c(NS(=O)(=O)c4ccc(NC(=O)C5(O)CC5)cc4)cc3F)C(=O)O)cc2)c1=O` [Compound A22]: 980 pM.
`Cn1c(=O)n(-c2ccc(C[C@H](NC(=O)c3cc(F)c(NS(=O)(=O)c4ccc(NC(=O)C5(O)CC5)cc4)cc3F)C(=O)O)cc2)c(=O)c2ccncc21` [Compound A23]: the IC50 amounted to 1000 pM.
For `Cn1c(=O)n(-c2ccc(C[C@H](NC(=O)c3cc(F)c(NS(=O)(=O)c4ccc(NC(=O)C5(C(F)(F)F)CC5)cc4)cc3F)C(=O)O)cc2)c(=O)c2ccncc21` [Compound A24], the IC50 is 300 pM.
The same measure for `Cc1c(C)n(C)c(=O)n(-c2ccc(C[C@H](NC(=O)c3cc(F)c(NS(=O)(=O)c4ccc(NC(=O)C(C)(C)C)nc4)cc3F)C(=O)O)cc2)c1=O` [Compound A25]: 1100 pM; for `Cn1c(=O)n(-c2ccc(C[C@H](NC(=O)c3cc(F)c(NS(=O)(=O)c4ccc(NC(=O)C(C)(C)C)cc4)cc3F)C(=O)O)cn2)c(=O)c2ccncc21` [Compound A26]: 230 pM.
